Experimental data: ChEMBL document CHEMBL5030539, “Potent and Selective Inhibitors of the Epidermal Growth Factor Receptor to Overcome C797S-Mediated Resistance” (J Med Chem, 2021)
Converted amounts (≈) assume the structure as drawn. The source made the active and inactive calls. The calls are words filed in the database; no cut-off is given here.

Key:
[1] = Intrinsic clearance in human liver microsomes; format: ADME, Microsome; conditions: read-out: CLH
[2] = Lipophilicity, log D of the compound at pH 7.4; format: physicochemical; conditions: buffer
[3] = Plasma protein binding in human plasma assessed as unbound fraction; format: ADME, cell-free
[4] = molecular target: Epidermal growth factor receptor (Homo sapiens, UniProt P00533); experiment: Inhibition of Wild type EGFR (unknown origin)
[5] = Aqueous solubility of the compound at pH 7.4; format: physicochemical; conditions: buffer
[6] = Dissociation constant, pKa of compound; format: physicochemical
[7] = Inhibition of EGFR Ex19del/T790M/C797S triple mutant (unknown origin) expressed in human NCI-H1975 cells assessed as protein phosphorylation measured after 2 hrs by ELISA; format: cell-based; conditions: NCI-H1975, 2 h
Homo sapiens = species: Homo sapiens; experiment: Inhibition of EGFR Ex19del/T790M/C797S triple mutant (unknown origin) assessed as enzyme residence time measured by -biacore direct binding assay
[8] = Intrinsic clearance in rat hepatocyte measured per 10^6 cells; format: ADME, tissue-based; conditions: hepatocytes
[9] = Inhibition of wild type EFGR expressed in human LoVo cell line assessed as inhibition of EGF-stimulated EGFR phosphorylation potency measured after 2 hrs by HRTF assay; format: functional
[10] = Intrinsic permeability of compound across apical to basolateral side in human Caco-2 cells; format: ADME, cell-based; conditions: read-out: permeability
[11] = Inhibition of EGFR Ex19del/T790M/C797S triple mutant (unknown origin) incubated for 15 min measured by -CisBio HTRF KinEASE TK; parameters: species or system Homo sapiens
[12] = Inhibition of EGFR Exon19Del/C797S double mutant (unknown origin) by biochemical assay; parameters: species or system Homo sapiens
[13] = Toxicity in mouse NSG assessed as change in body weight at 50 mg/kg, sc bid for 14 to 21 days; format: organism-based; conditions: in vivo, time 14-21 day
[14] = Inhibition of EFGR Ex19del (unknown origin) expressed in human PC-9 cells assessed as inhibition of EGF-induced phosphorylation measured after 2 hrs by ELISA; format: cell-based; conditions: PC-9, 2 h
NCI-H1975 = experiment: Antitumour activity against human NCI-H1975 cells harboring EGFR L858R/T790M double mutant xenografted in NSG mouse model assessed as tumour growth inhibition at 50 mg/kg, sc bid for 14 days relative to control; format: functional; conditions: 336 h, time 14 day, read-out: TGI
PC-9 [15] = experiment: In vivo inhibition of EGFR in human PC-9-VanR cells harboring EGFR Ex19del/T790M/C797S triple mutant xenografted in NSG mouse model assessed as inhibition of S6 phosphorylation in tumor at 50 mg/kg, sc bid for 21 days by immunoblot analysis; format: functional, organism-based; conditions: time 21.0 day
[16] = molecular target: Epidermal growth factor receptor (Homo sapiens, UniProt P00533, L858R/T790M)
PC-9 [17] = experiment: In vivo inhibition of EGFR in human PC-9-VanR cells harboring EGFR Ex19del/T790M/C797S triple mutant xenografted in NSG mouse model assessed as inhibition of EGFR phosphorylation in tumor at 50 mg/kg, sc bid for 21 days by immunoblot analysis; format: functional, organism-based; conditions: time 21.0 day
[18] = Inhibition of EFGR Ex19del/T790M/C797S triple mutant (unknown origin) expressed in human PC-9-VanR cells assessed as inhibition of EGF-induced phosphorylation measured after 2 hrs by ELISA; format: cell-based; conditions: PC-9, 2 h
PC-9 [19] = experiment: Antitumour activity against human PC-9-VanR cells harboring EGFR Ex19del/T790M/C797S triple mutant xenografted in NSG mouse model assessed as tumour growth inhibition at 50 mg/kg, sc bid for 21 days; format: functional; conditions: PC-9, sc, 504 h, time 21 day, read-out: TGI
PC-9 [20] = experiment: In vivo inhibition of EGFR in human PC-9-VanR cells harboring EGFR Ex19del/T790M/C797S triple mutant xenografted in NSG mouse model assessed as inhibition of Akt phosphorylation in tumor at 50 mg/kg, sc bid for 21 days by immunoblot analysis; format: functional, organism-based; conditions: time 21.0 day
PC-9 [21] = experiment: In vivo inhibition of EGFR in human PC-9-VanR cells harboring EGFR Ex19del/T790M/C797S triple mutant xenografted in NSG mouse model assessed as inhibition of ERK phosphorylation in tumor at 50 mg/kg, sc bid for 21 days by immunoblot analysis; format: functional, organism-based; conditions: time 21.0 day

Sequence of Epidermal growth factor receptor (Homo sapiens, UniProt P00533) (P00533 whole entry): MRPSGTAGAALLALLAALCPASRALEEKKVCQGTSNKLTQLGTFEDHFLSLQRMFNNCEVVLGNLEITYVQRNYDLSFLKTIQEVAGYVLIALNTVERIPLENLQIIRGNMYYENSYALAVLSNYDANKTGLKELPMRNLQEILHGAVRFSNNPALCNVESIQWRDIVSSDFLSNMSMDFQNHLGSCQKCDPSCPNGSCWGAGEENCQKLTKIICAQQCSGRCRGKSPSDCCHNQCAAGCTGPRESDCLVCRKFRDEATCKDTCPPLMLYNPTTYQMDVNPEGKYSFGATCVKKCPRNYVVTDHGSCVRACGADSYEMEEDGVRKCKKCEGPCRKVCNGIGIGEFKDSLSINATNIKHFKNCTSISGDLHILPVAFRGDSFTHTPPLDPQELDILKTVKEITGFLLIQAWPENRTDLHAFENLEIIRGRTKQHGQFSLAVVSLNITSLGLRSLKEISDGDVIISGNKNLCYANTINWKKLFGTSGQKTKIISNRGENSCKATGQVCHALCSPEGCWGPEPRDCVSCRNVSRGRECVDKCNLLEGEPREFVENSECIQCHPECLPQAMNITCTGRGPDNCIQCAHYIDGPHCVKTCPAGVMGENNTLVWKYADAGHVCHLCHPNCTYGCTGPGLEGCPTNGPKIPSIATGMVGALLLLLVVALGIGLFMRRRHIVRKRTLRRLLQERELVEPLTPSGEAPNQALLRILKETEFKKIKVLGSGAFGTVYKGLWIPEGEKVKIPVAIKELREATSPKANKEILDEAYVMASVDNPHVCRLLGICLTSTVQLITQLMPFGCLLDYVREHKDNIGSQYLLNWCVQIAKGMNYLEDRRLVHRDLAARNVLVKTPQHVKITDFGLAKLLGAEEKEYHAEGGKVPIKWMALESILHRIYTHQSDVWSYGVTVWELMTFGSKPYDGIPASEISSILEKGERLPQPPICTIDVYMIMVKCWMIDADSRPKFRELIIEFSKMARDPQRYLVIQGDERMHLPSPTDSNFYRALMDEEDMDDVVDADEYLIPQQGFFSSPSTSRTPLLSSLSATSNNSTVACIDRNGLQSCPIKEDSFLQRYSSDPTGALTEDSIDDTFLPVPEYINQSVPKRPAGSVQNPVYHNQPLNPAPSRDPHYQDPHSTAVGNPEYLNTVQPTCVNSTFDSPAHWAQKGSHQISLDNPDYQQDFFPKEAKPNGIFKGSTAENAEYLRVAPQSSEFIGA
Sequence of Epidermal growth factor receptor (Homo sapiens, UniProt P00533, L858R/T790M) (P00533 25-1210 T790M/L858R limits assumed): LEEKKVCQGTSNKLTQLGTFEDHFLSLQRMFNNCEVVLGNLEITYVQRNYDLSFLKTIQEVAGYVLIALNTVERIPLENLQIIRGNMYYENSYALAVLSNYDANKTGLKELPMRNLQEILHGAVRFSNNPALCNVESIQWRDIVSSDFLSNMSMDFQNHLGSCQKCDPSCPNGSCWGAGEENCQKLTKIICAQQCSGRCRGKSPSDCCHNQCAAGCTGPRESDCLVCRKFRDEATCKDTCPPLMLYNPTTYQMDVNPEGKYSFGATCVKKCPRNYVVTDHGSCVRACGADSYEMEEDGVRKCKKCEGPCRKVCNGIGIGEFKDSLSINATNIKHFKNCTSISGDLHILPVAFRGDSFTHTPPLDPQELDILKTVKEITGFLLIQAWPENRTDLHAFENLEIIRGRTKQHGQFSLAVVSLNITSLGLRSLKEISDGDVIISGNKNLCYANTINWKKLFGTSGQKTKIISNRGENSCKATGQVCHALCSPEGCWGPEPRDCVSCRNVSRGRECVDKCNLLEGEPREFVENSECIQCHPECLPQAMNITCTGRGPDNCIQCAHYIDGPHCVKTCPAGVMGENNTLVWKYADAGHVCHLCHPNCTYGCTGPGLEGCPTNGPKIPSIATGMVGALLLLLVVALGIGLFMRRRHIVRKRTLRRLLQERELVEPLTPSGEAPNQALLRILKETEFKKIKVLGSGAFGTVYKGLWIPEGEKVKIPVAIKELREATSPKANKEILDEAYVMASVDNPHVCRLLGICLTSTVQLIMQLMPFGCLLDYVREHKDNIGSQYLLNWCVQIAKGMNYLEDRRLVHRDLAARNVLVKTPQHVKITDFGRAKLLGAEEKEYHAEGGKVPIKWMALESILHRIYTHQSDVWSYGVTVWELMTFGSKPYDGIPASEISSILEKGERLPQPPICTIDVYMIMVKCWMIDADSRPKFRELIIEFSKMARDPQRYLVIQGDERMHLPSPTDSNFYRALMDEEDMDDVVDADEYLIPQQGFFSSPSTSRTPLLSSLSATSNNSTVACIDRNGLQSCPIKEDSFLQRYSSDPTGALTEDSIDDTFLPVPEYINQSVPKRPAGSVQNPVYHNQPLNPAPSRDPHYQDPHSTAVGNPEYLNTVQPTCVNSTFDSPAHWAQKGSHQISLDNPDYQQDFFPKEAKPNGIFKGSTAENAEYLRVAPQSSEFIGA

Compound | microsomal CLint [1] [µL/min/mg] | logD [2] | fraction unbound ([3]; read-out: Fu) | IC50 [4] [nM] | solubility [5] [µM] | IC50 [7] [nM] | TIME (Homo sapiens) [h] | CLH [8] [uL/min/10^6 cells] | IC50 [9] [nM] | Papp A→B at 10 µM [10] [×10⁻⁶ cm/s] | IC50 [11] [nM] | other results
COc1cc(N2CCN(C)CC2)c(-c2cnn(C)c2)cc1Nc1ncc(Cl)c(Nc2ccccc2P(C)(C)=O)n1 | 24 | 2.4 | 0.243 | 3.3 | > 1000 | 241 | 2.65 | < 1 | 79 | 2.6 | 0.23 | pKa [6]: 7.6
COc1cc(N2CCC(N(C)C)CC2)c(-c2cn[nH]c2)cc1Nc1ncc(Cl)c(Nc2ccccc2P(C)(C)=O)n1 | 23 | 1.8 | 0.19 | 0.9 | > 1000 | 2010 | 2.3 | < 1 | 373 | 0.24 | 0.5 | –
COc1cc(N2CCC(N3CCN(C)CC3)CC2)c(-c2cnn(C)c2)cc1Nc1ncc(Cl)c(Nc2ccccc2P(C)(C)=O)n1 | 21 | 2.7 | 0.228 | 0.92 | > 1000 | 91 | 2.52 | < 1 | 140 | < 0.62 | 0.32 | –
CCP(=O)(CC)c1ccccc1Nc1nc(Nc2cc(-c3cnn(C)c3)c(N3CCOCC3)cc2OC)ncc1Cl | 71 | 4 | 0.041 | 2.4 | – | 139 | 1.83 | 67 | – | 78 | 0.2 | –
COc1cc(N2CCOCC2)c(-c2cn[nH]c2)cc1Nc1ncc(Cl)c(Nc2ccccc2P(C)(C)=O)n1 | 28 | 3.4 | 0.009 | – | < 3 | 1090 | 3.97 | – | 2140 | 18 | – | –
COc1cc(N2CCC(N3CCN(C)CC3)CC2)c(-c2cn[nH]c2)cc1Nc1ncc(Cl)c(Nc2ccccc2P(C)(C)=O)n1 | 28 | 2.5 | 0.1 | – | > 1000 | 498 | 2.2 | – | 726 | – | 0.3 | –
C=CC(=O)Nc1cc(Nc2nccc(-c3cn(C)c4ccccc34)n2)c(OC)cc1N(C)CCN(C)C [OSIMERTINIB] | – | – | – | – | – | – | – | – | – | – | – | IC50 [12]: 44 nM
COc1cc(N2CCOCC2)c(-c2cnn(C)c2)cc1Nc1ncc(Cl)c(Nc2ccccc2P(C)(C)=O)n1 | 49 | 3 | 0.07 | 4.4 | 8.7 (≈ 4.94 µg/mL) | 122 | 1.37 | 16 | 1180 | 61 | 0.2 | Activity [13]: Toxic; IC50 [14]: 52 nM; inhibition in vivo at 50 mg/kg (NCI-H1975): 87%; Activity (PC-9 [15]): Active; IC50 [16]: 32 nM; Activity (PC-9 [17]): Active; IC50 [18]: 739 nM; inhibition in vivo at 50 mg/kg (PC-9 [19]): 52%; Activity (PC-9 [20]): Active; Activity (PC-9 [21]): Active
COc1cc(N2CCC(N(C)C)CC2)c(-c2cnn(C)c2)cc1Nc1ncc(Cl)c(Nc2ccccc2P(C)(C)=O)n1 | 31 | 1.9 | 0.272 | 1.7 | > 1000 | – | 1.08 | < 1 | 101 | < 0.24 | 0.19 | pKa [6]: 9.4
COc1cc(N2CCC(N3CCN(C)CC3)CC2)ccc1Nc1ncc(Cl)c(Nc2ccccc2P(C)(C)=O)n1 [BRIGATINIB] | 3.1 | 2.3 | – | – | > 1190 | 459 | 0.333 | – | 2030 | 4.7 | 7 | IC50 [12]: 132 nM; IC50 [14]: 357 nM; fraction unbound [3]: 0.155; IC50 [18]: 2680 nM
